Seven compounds from patent publication US20250099596A1, “TETRAHYDRONAPHTHALENE COMPOUND, AND PREPARATION METHOD THEREFOR AND USE THEREOF IN MEDICINE” (Jiangsu Hengrui Pharmaceuticals Co., Ltd., priority 2021, published 2025) can be followed below.

SMILES strings stand for the structures. Where two headings read alike, the source gives them in different places.

The nature of data set [1]: Pharmacokinetic evaluation, beagle test. The class given is in vivo. The note with it: beagles; for AUC(0-t): read-out: Area under curve AUC0-t; for half-life: read-out: Half-life T1/2 (converted); for Cmax: read-out: Plasma concentration Cmax. On the procedure: With beagles as test animals, the plasma concentrations of the compound of Example 26-1 and Comparative Example 1 were determined by LC/MS/MS at different time points after intragastric (i.g.)/intravenous (i.v.) administration to beagles. The pharmacokinetic behavior of the compound of the present disclosure in beagles was studied and its pharmacokinetic profile was evaluated.
The compound of Example 26-1 and Comparative Example 1 (see patent WO2018102725A1, Example 411), whose structure is shown below:
Sixteen beagles, of which half were male and half female, were evenly divided into 4 groups. The beagles were provided by Shanghai Medicilon Inc. The 4 groups were fasted overnight and then dosed intragastrically and intravenously.
Certain amounts of the compound of Example 26-1 and the compound of Comparative Example 1 were weighed out and mixed with 5% (v/v) DMSO+30% (v/v) PG+30% (v/v) PEG400+35% (v/v) normal saline to make 0.4 mg/mL clear solutions (for the intragastric administration groups) and 0.25 mg/mL clear solutions (for the intravenous administration groups).
The intragastric administration groups: the dose was 2.0 mg/kg, and the volume was 5.0 mL/kg.
The intravenous administration groups: the dose was 0.5 mg/kg, and the volume was 2.0 mL/kg.
The intragastric administration group: Blood (1.0 mL) was collected from the jugular vein or the forelimb vein into EDTA-K2 anticoagulation tubes before administration and 0.25 h, 0.5 h, 1.0 h, 2.0 h, 4.0 h, 6.0 h, 8.0 h, 12.0 h and 24.0 h after administration and centrifuged at 10,000 rpm for 5 min (4° C.). The plasma was separated within 1 h and stored at −80° C. before analysis. The process from blood collection to centrifugation was performed in an ice bath. Three hours after administration, feeding was resumed.
The intravenous administration groups: Blood was collected before administration and 5 min, 0.25 h, 0.5 h, 1.0 h, 2.0 h, 4.0 h, 8.0 h, 12.0 h and 24 h after administration and processed as in the intragastric administration groups.
The plasma concentrations of the test compounds were determined after administration of different concentrations of the test compounds to beagles: plasma samples (50 μL) were collected from beagles at various time points after administration, and proteins were precipitated with 500 μL of methanol (containing 100 ng/mL internal standard Verapamil) for each of the samples; the mixtures were vortexed for 1 min and centrifuged at 18,000 g for 7 min. 500 μL of supernatant was transferred to a 96-well plate. 1 μL of supernatant was collected for LC/MS/MS analysis.

In another data set the test system is MCF7/ERα Y537S cells. Description: Inhibitory activity on proliferation of ERα mutant-expressing MCF7 cells. It is filed as cell-based. The settings on record: Homo sapiens, 144 h, 6 days incubation, CellTiter-Glo, read-out: IC50 (nM), inhibition of proliferation of ERα mutant-expressing MCF7 cells. In outline:
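MCF7 cells stably expressing ERα Y537S (lentiviral) were seeded in 2% FBS medium and exposed for 6 days at 37 °C to 9 concentrations (4-fold dilution from 1000 nM, 0.5% DMSO control). Viability read by CellTiter-Glo luminescence; IC50 calculated from concentration–signal data.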

A further data set concerns MCF7 cells. As to the kind of experiment: Inhibitory effects on MCF7 cell proliferation (CellTiter-Glo). The class given is cell-based. The note with it: Homo sapiens, 144 h, 6 days incubation, read-out: IC50 (nM), inhibition of MCF7 cell proliferation. In outline:
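MCF7 cells seeded at 3,000 cells/well in MEM with 2% FBS, then treated next day with 9 final concentrations (4-fold dilutions from 1000 nM) for 6 days at 37° C; blank control 0.5% DMSO. Viability read by CellTiter-Glo luminescence; IC50 fitted from concentration–signal data.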
A general note: Cellular ATP, detected with luciferase, serves as a proxy for viable cell number.

The mark [2] stands for this setting: both sexes, beagle, dog, plasma, iv, i.v., 0.5 mg/kg.
Setting [3] is: both sexes, beagle, dog, plasma, po, i.g., 2.0 mg/kg.

Take `O=C1CCC(N2Cc3cc(N4CCN(CC5CCN(c6ccc([C@@H]7c8ccc(O)cc8CC[C@@H]7c7ccccc7)cc6)CC5)CC4)ccc3C2=O)C(=O)N1` (stereo partly drawn) [Comparative Example 1, reference compound]: in data set [1] (i.v., 0.5 mg/kg), the “Clearance CL/F” value was 0.168 L/h/kg. Besides, in data set [1] (setting [2]), the AUC(0-t) worked out at 2.68 µg·h/mL, the half-life was 8.1 h and the Cmax was determined as 0.6 µg/mL. In addition, in data set [1] (both sexes, beagle, dog, plasma, po, i.g., 2.0 mg/kg, read-out: Apparent distribution volume Vz/F), the Vd/F stood at 5.5 L/kg. In data set [1] (setting [3]), the AUC(0-t) is 4.05 µg·h/mL, the half-life was 9 h and the Cmax was found to be 0.324 µg/mL. Further, in data set [1] (both sexes, beagle, dog, plasma, po, i.g., 2.0 mg/kg, read-out: Clearance CL/F), the CL/F is 0.438 L/h/kg.
Turning to `O=C1CC[C@H](N2Cc3cc(N4CCN(CC5CCN(c6ccc([C@@H]7c8ccc(O)cc8CC[C@@H]7C7CCOCC7)cc6F)CC5)CC4)ccc3C2=O)C(=O)N1` [Example 5, (S)-3-(5-(4-((1-(2-Fluoro-4-((1R,2R)-6-hydroxy-2-(tetrahydro-2H-pyran-4-yl)-1,2,3,4-tetrahydronaphthalen-1-yl)phenyl)piperidin-4-yl)methyl)piperazin-1-yl)-1-oxoisoindolin-2-yl)piperidine-2,6-dione], the IC50 in the data set with MCF7/ERα Y537S cells came to 2.29 nM; in the data set on MCF7 cells, 0.72 nM.
As to `O=C1CC[C@H](N2Cc3cc(N4CCN(CC5CCN(c6ccc([C@@H]7c8ccc(O)cc8CCC78CCOCC8)cc6)CC5)CC4)ccc3C2=O)C(=O)N1` [Example 22, (S)-3-(5-(4-((1-(4-((R)-6-Hydroxy-2′,3,3′,4,5′,6′-hexahydro-1H-spiro[naphthalene-2,4′-pyran]-1-yl)phenyl)piperidin-4-yl)methyl)piperazin-1-yl)-1-oxoisoindolin-2-yl)piperidine-2,6-dione], the results for the IC50 in the data set on MCF7/ERα Y537S cells and in the data set on MCF7 cells were 9.19 nM and 3.13 nM, respectively.
Consider `O=C1CC[C@H](N2Cc3cc(N4CCN(CC5CCN(c6ccc([C@@H]7c8ccc(O)cc8CC[C@@H]7C7CC7)cc6F)CC5)CC4)ccc3C2=O)C(=O)N1` [Example 21, (S)-3-(5-(4-((1-(4-((1R,2R)-2-Cyclopropyl-6-hydroxy-1,2,3,4-tetrahydronaphthalen-1-yl)-2-fluorophenyl)piperidin-4-yl)methyl)piperazin-1-yl)-1-oxoisoindolin-2-yl)piperidine-2,6-dione], for which the IC50 with MCF7/ERα Y537S cells worked out at 5.66 nM; in the data set with MCF7 cells, 1.72 nM.
`O=C1CCC(N2Cc3cc(N4CCN(CC5CCN(c6ccc([C@H]7c8ccc(O)cc8CC[C@H]7C7CCCC7)cc6)CC5)CC4)ccc3C2=O)C(=O)N1` (stereo partly drawn) [Example 14-2, 3-(5-(4-((1-(4-((1S,2S)-2-Cyclopentyl-6-hydroxy-1,2,3,4-tetrahydronaphthalen-1-yl)phenyl)piperidin-4-yl)methyl)piperazin-1-yl)-1-oxoisoindolin-2-yl)piperidine-2,6-dione]: the figures for the IC50 with MCF7/ERα Y537S cells and with MCF7 cells were 24.4 nM and 8.17 nM, respectively.
The corresponding values for `O=C1CCC(N2Cc3cc(N4CCN(CC5CCN(c6ccc([C@H]7c8ccc(O)cc8CC[C@H]7C7CCCCC7)cc6)CC5)CC4)ccc3C2=O)C(=O)N1` (stereo partly drawn) [Example 15-2, 3-(5-(4-((1-(4-((1S,2S)-2-Cyclohexyl-6-hydroxy-1,2,3,4-tetrahydronaphthalen-1-yl)phenyl)piperidin-4-yl)methyl)piperazin-1-yl)-1-oxoisoindolin-2-yl)piperidine-2,6-dione] are 31.4 nM and 14.3 nM.
In the case of `O=C1CC[C@H](N2Cc3cc(N4CCN(CC5CCN(c6ccc([C@@H]7c8ccc(O)cc8CC[C@@H]7C7CCCC7)cc6F)CC5)CC4)ccc3C2=O)C(=O)N1` [Example 19, (S)-3-(5-(4-((1-(4-((1R,2R)-2-cyclopentyl-6-hydroxy-1,2,3,4-tetrahydronaphthalen-1-yl)-2-fluorophenyl)piperidin-4-yl)methyl)piperazin-1-yl)-1-oxoisoindolin-2-yl)piperidine-2,6-dione], the IC50 was 5.04 nM in the data set on MCF7/ERα Y537S cells and 0.87 nM in the data set with MCF7 cells.
